# In patent publication US12252481B2, “Anti-viral compounds” (Aligos Therapeutics, Inc., priority 2021, dated 2025):
# pEC50, pIC50: −log10 of the molar value.
# Columns and labels:
# [1] = molecular target: T1, SARS-Cov-2 3CLpro (Severe acute respiratory syndrome coronavirus 2, UniProt P0DTD1); assay: biochemical; details: 3CLpro, 30 mins preincubation, SAMDI-MS; read-out: SARS-Cov-2 IC50 (class)
# T1 construct: 3CLpro and HRV3C was added using a Multidrop Combi
# [2] = molecular target: T2, HRV3C (Human rhinovirus 14, UniProt P03303); assay: biochemical; design: species or system HRV; details: HRV3C, 30 mins preincubation, SAMDI-MS; read-out: HRV IC50 (bound)
# T2 construct: 3CLpro and HRV3C was added using a Multidrop Combi
# T2 sequence (P03303 1538-1719): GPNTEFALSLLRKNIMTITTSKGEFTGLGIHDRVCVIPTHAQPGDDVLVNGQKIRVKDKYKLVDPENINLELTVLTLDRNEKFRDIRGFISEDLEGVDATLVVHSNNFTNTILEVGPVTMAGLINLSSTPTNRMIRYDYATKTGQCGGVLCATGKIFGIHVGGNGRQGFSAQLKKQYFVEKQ
# [3] = tested on: human beta-coronavirus OC43; assay: OC43 coronavirus antiviral assay in HeLa cells (cytopathic effect, cell-titer-glo); type: cell-based; details: Betacoronavirus 1, OC43, HeLa, 144 h, 6 days at 33° C., read-out: EC50 (class)
# [4] = tested on: B.1.1.7 lineage SARS-CoV-2; assay: microbe, parasite or virus in culture; type: cell-based; details: Severe acute respiratory syndrome coronavirus 2, 96 h; read-out: A549-dual_ACE2_TMPRSS2 (EC50)
SMILES,pIC50 [1],pIC50 [2],pEC50 [3],pEC50 [4]
CC(C)(C)[C@H](NC(=O)C(F)(F)Cl)C(=O)N1C[C@H]2[C@@H]([C@H]1C(=O)N[C@H](C#N)C[C@@H]1OCCNC1=O)[C@H]1C=C[C@@H]2C1 [Compound 116],> 7.70,< 6.30,> 7.00,> 7.00
"CC(C)(C)[C@H](NC(=O)C(F)(F)C(F)(F)F)C(=O)N1C[C@H]2[C@@H]([C@H]1C(=O)N[C@H](C#N)CC1CC3(COC3)NC1=O)[C@H]1C=C[C@@H]2C1 (stereo partly drawn) [Compound 107, (1R,2S,3S,6R,7S)—N-[(1S)-1-cyano-2-{6-oxo-2-oxa-5-azaspiro[3.4]octan-7-yl}ethyl]-4-[(2S)-3,3-dimethyl-2-(2,2,3,3,3-pentafluoropropanamido)butanoyl]-4-azatricyclo[5.2.1.0^{2,6}]dec-8-ene-3-carboxamide]",> 7.70,< 6.30,> 7.00,> 7.00
"CC(C)(C)[C@H](NC(=O)C(F)(F)F)C(=O)N1C[C@H]2[C@@H]([C@H]1C(=O)N[C@H](C#N)C[C@@H]1CCNC1=O)[C@H]1CC[C@@H]2C1(F)F [Example 92, (1S,3aS,4S,7R,7aR)—N-((S)-1-cyano-2-((S)-2-oxopyrrolidin-3-yl)ethyl)-2-((S)-3,3-dimethyl-2-(2,2,2-trifluoroacetamido)butanoyl)-8,8-difluorooctahydro-1H-4,7-methanoisoindole-1-carboxamide]",6.70 to 7.70,< 6.30,6.00 to 7.00,6.00 to 7.00
"CC(C)([C@H](NC(=O)C(F)(F)F)C(=O)N1C[C@H]2[C@@H]([C@H]1C(=O)N[C@H](C#N)C[C@@H]1CCNC1=O)[C@H]1C=C[C@@H]2C1)C(F)(F)F [Compound 102a, (1S,3aR,4S,7R,7aS)-N-((S)-1-cyano-2-((S)-2-oxopyrrolidin-3-yl)ethyl)-2-((S)-4,4,4-trifluoro-3,3-dimethyl-2-(2,2,2-trifluoroacetamido)butanoyl)-2,3,3a,4,7,7a-hexahydro-1H-4,7-methanoisoindole-1-carboxamide]",> 7.70,< 6.30,> 7.00,> 7.00
"CC(C)(C)[C@H](NC(=O)CC(F)(F)F)C(=O)N1C[C@H]2[C@@H]([C@H]1C(=O)N[C@H](C#N)C[C@@H]1Oc3ccncc3NC1=O)[C@H]1C=C[C@@H]2C1 [Compound 110, (1S,3aR,4S,7R,7aS)-N-((S)-1-cyano-2-((S)-3-oxo-3,4-dihydro-2H-pyrido[4,3-b][1,4]oxazin-2-yl)ethyl)-2-((S)-3,3-dimethyl-2-(3,3,3-trifluoropropanamido)butanoyl)-2,3,3a,4,7,7a-hexahydro-1H-4,7-methanoisoindole-1-carboxamide]",> 7.70,< 6.30,> 7.00,> 7.00
"C[C@@H](OC1CC1)[C@H](NC(=O)C(F)(F)C(F)(F)F)C(=O)N1C[C@H]2[C@@H]([C@H]1C(=O)N[C@H](C#N)C[C@@H]1CCNC1=O)[C@H]1C=C[C@@H]2C1 [Compound 101, (1S,3aR,4S,7R,7aS)-N-((S)-1-cyano-2-((S)-2-oxopyrrolidin-3-yl)ethyl)-2-(O-cyclopropyl-N-(2,2,3,3,3-pentafluoropropanoyl)-L-threonyl)-2,3,3a,4,7,7a-hexahydro-1H-4,7-methanoisoindole-1-carboxamide]",> 7.70,< 6.30,> 7.00,> 7.00
"CC(C)(C)[C@H](NC(=O)C(F)(F)C(F)(F)F)C(=O)N1C[C@@H]2[C@H]3C[C@@H]([C@@H]2[C@H]1C(=O)N[C@H](C#N)C[C@@H]1CCNC1=O)[C@H](F)C3 [Example 87, (1S,3aR,4S,6R,7S,7aR)—N-((S)-1-cyano-2-((S)-2-oxopyrrolidin-3-yl)ethyl)-2-((S)-3,3-dimethyl-2-(2,2,3,3,3-pentafluoropropanamido)butanoyl)-6-fluorooctahydro-1H-4,7-methanoisoindole-1-carboxamide]",> 7.70,< 6.30,> 7.00,> 7.00
"CC1(C)NC(=O)[C@H](C[C@@H](C#N)NC(=O)[C@@H]2[C@@H]3[C@H](CN2C(=O)[C@@H](NC(=O)C(F)(F)F)C(C)(C)C)[C@@H]2C=C[C@H]3C2)O1 [Compound 105, (1S,3aR,4S,7R,7aS)-N-((S)-1-cyano-2-((S)-2,2-dimethyl-4-oxooxazolidin-5-yl)ethyl)-2-((S)-3,3-dimethyl-2-(2,2,2-trifluoroacetamido)butanoyl)-2,3,3a,4,7,7a-hexahydro-1H-4,7-methanoisoindole-1-carboxamide]",6.70 to 7.70,< 6.30,6.00 to 7.00,> 7.00
CC(C)(C)[C@H](NC(=O)C(F)(F)F)C(=O)N1C[C@H]2[C@@H]([C@H]1C(=O)N[C@H](C#N)C[C@@H]1OCCNC1=O)[C@H]1C=C[C@@H]2C1(F)F [Compound 117],> 7.70,< 6.30,> 7.00,> 7.00
CC(C)(C)[C@H](NC(=O)C(F)(F)F)C(=O)N1C[C@@H]2[C@H]3C[C@H](C[C@@H]3F)[C@@H]2[C@H]1C(=O)N[C@H](C#N)C[C@@H]1OCCNC1=O [Compound 119],6.70 to 7.70,< 6.30,6.00 to 7.00,6.00 to 7.00
"CC(C)(C)[C@H](NC(=O)C(F)(F)F)C(=O)N1C[C@H]2[C@@H]([C@H]1C(=O)N[C@H](C#N)CC1C[C@H](C(F)(F)F)NC1=O)[C@H]1C=C[C@@H]2C1 (stereo partly drawn) [Compound 108, (1R,2S,3S,6R,7S)—N-[(1S)-1-cyano-2-[(5R)-2-oxo-5-(trifluoromethyl)pyrrolidin-3-yl]ethyl]-4-[(2S)-3,3-dimethyl-2-(2,2,2-trifluoroacetamido)butanoyl]-4-azatricyclo[5.2.1.0^{2,6}]dec-8-ene-3-carboxamide]",> 7.70,< 6.30,> 7.00,> 7.00
C=C(C)C(C)(C)[C@H](NC(=O)C(F)(F)F)C(=O)N1C[C@H]2[C@@H]([C@H]1C(=O)N[C@H](C#N)C[C@@H]1CCNC1=O)[C@H]1C=C[C@@H]2C1 [Example 97],> 7.70,< 5.00,> 7.00,> 7.00
CC(C)(C)[C@H](NC(=O)C(F)(F)F)C(=O)N1C[C@@H]2[C@H]3C[C@H](C[C@@H]3F)[C@@H]2[C@H]1C(=O)N[C@H](C#N)C[C@@H]1CCNC1=O [Example 96],6.70 to 7.70,< 6.30,6.00 to 7.00,6.00 to 7.00
N#C[C@H](C[C@@H]1CCNC1=O)NC(=O)[C@@H]1[C@@H]2[C@H](CN1C(=O)[C@H](CC1CCC1)NC(=O)C(F)(F)F)[C@@H]1C=C[C@H]2C1 [Example 95],> 7.70,< 5.00,> 7.00,> 7.00
"CC(C)(C)[C@H](NC(=O)C(F)(F)C(F)(F)F)C(=O)N1C[C@H]2[C@@H]([C@H]1C(=O)N[C@H](C#N)C[C@@H]1OCCNC1=O)[C@H]1C=C[C@@H]2C1 [Compound 115, (1S,3aR,4S,7R,7aS)-N-((S)-1-cyano-2-((S)-3-oxomorpholin-2-yl)ethyl)-2-((S)-3,3-dimethyl-2-(2,2,3,3,3 pentafluoropropanamido)butanoyl)-2,3,3a,4,7,7a-hexahydro-1H-4,7-methanoisoindole-1-carboxamide]",> 7.70,< 6.30,> 7.00,> 7.00
[2H]C([2H])([2H])C([C@H](NC(=O)C(F)(F)F)C(=O)N1C[C@H]2[C@@H]([C@H]1C(=O)N[C@H](C#N)C[C@@H]1CCNC1=O)[C@H]1C=C[C@@H]2C1)(C([2H])([2H])[2H])C([2H])([2H])[2H] [Compound 124],> 7.70,< 6.30,–,–
COC1(C(=O)N[C@H](C(=O)N2C[C@H]3[C@@H]([C@H]2C(=O)N[C@H](C#N)C[C@@H]2CCNC2=O)[C@H]2C=C[C@@H]3C2)C(C)(C)C)CC1 [Compound 126],6.70 to 7.70,< 6.30,6.00 to 7.00,6.00 to 7.00
"CC(C)(C)[C@H](NC(=O)C(F)(F)F)C(=O)N1C[C@H]2[C@@H]([C@H]1C(=O)N[C@H](C#N)C[C@@H]1CCNC1=O)[C@H]1C=C[C@@H]2C1O (mixture of isomers) [Example 90, (1R,2R,3S,6S,7S)—N-[(1S)-1-cyano-2-[(3S)-2-oxopyrrolidin-3-yl]ethyl]-4-[(2S)-3,3-dimethyl-2-(2,2,2-trifluoroacetamido)butanoyl]-10-hydroxy-4-azatricyclo[5.2.1.0^{2,6}]dec-8-ene-3-carboxamide]",6.70 to 7.70,< 5.00,–,5.00 to 6.00
CC(C)(C)[C@H](NC(=O)C(F)(F)F)C(=O)N1C[C@H]2[C@@H]([C@H]1C(=O)N[C@H](C#N)C[C@@H]1Oc3cnccc3NC1=O)[C@H]1C=C[C@@H]2C1 [Compound 113],> 7.70,< 6.30,> 7.00,> 7.00
"CC(C)(C)[C@H](NC(=O)C(F)(F)F)C(=O)N1C[C@@H]2[C@@H]3CC[C@@H](C3)[C@@H]2[C@H]1C(=O)N[C@H](C#N)CC1CC2(CC(F)(F)C2)NC1=O (stereo partly drawn) [Compound 104, (1S,2S,3S,6R,7R)—N-[(1S)-1-cyano-2-{2,2-difluoro-6-oxo-5-azaspiro[3.4]octan-7-yl}ethyl]-4-[(2S)-3,3-dimethyl-2-(2,2,2-trifluoroacetamido)butanoyl]-4-azatricyclo[5.2.1.0^{2,6}]decane-3-carboxamide]",> 7.70,< 6.30,6.00 to 7.00,> 7.00
CC(C)(OCC1CC1)[C@H](NC(=O)C(F)(F)C(F)(F)F)C(=O)N1C[C@H]2[C@@H]([C@H]1C(=O)N[C@H](C#N)C[C@@H]1CCNC1=O)[C@H]1C=C[C@@H]2C1 [Compound 103],> 7.70,< 6.30,> 7.00,> 7.00
